These results are taken from patent US10538520B2, “Benzamide and nicotinamide compounds and methods of using same” (OncoTartis Inc., priority 2013, dated 2020).

For one test, the system named is MV4-11. The experiment in a line: Cytotoxicity towards MV4-11 cell line. In kind it is cell-based. The following applies: Homo sapiens. As for the experimental part: (§1) In various embodiments, the compounds of the disclosure are those in which show IC50 values in cytotoxicity experiments towards cells lines MV4-11 and U937 of >20 μM, 10-20 μM, 5-10 μM, 1-5 μM, or <1 μM.
(§2) The IC50 is divided into 5 categories: A<1 μM, B 1-5 μM, C 5-10 μM, D 10-20 μM, and E>20 μM.

Another test relates to U-937. The experiment in a line: Cytotoxicity towards U-937 cell line. It is filed as cell-based. The note with it: Homo sapiens. As for the experimental part:
as §1, §2

In test [1] the test system is MV4-11 cells. In words: Subcutaneous MV4-11 xenograft model of AML in SCID mice, tumor growth. It is filed as in vivo. The following applies: for maximum suppression of tumor growth (STG %): 6 days per week; for effect on tumor growth: SCID mice inoculated SC with MV4-11 cells (FIGS. 1 and 2). As for the experimental part: FIG. 1. Example of growth of tumors in MV4-11 xenograft model of AML in SCID mice treated with vehicle control and TT-03197 at 10 mg/kg and 40 mg/kg administered intraperitoneally. Mice were treated 6 days per week as indicated on the figure. Results are Mean±SE (n=14-16).
FIG. 2. Example of growth of tumors in MV4-11 xenograft model of AML in SCID mice treated with vehicle control and TT-03203 at 10 mg/kg and 25 mg/kg administered orally. Mice were treated 6 days per weeks as indicated on the figure. Results are Mean±SE (n=17-20)
(§3) Efficacy of compounds was tested in two types of xenograft models of leukemia: subcutaneous (SC) (development of tumors after SC inoculation of cells) and systemic and disseminated (development of tumors on different organs after intravenous inoculation of cells). MV4-11 cells (ATCC CRL-9591) of acute myelomonocytic leukemia (AML) were used.
The maximum suppression of tumor growth (calculated using formula: STG %=(volume control-volume treated)/volume control*100) was 28% for mice treated with 10 mg/kg of TT-03197 and 55% for mice treated with 40 mg/kg of […] (FIG. 1). For TT-03203 the maximum STG was 27% for mice treated PO with 10 mg/kg of TT-03203 and 46% for mice treated with 25 mg/kg of TT-03203 (FIG. 2).

In test [2] the test system is MV4-11 cells. In words: Systemic (disseminated) MV4-11 model of AML in SCID mice, survival. It is filed as in vivo. The following applies: 6 days per week, days 4-58, IV MV4-11 (FIG. 3). As for the experimental part:
FIG. 3. Example of survival of SCID mice inoculated via IV route with MV4-11 cells and treated via oral gavage with vehicle control, TT-01901 at 100 mg/kg and TT-03586 at 50 mg/kg 6 days per week on days 4-58. Mice were sacrificed according to IACUC regulations after losing more than 20% of body weight or becoming moribund and paralyzed.
as §3
In this model leukemia cells either from patient of from cell lines are administered intravenously into mice and leukemia cells are engrafted into blood and blood-forming organs (bone marrow, thymus, spleen).
In systemic model of AML SCID mice were irradiated with 3 Gy and inoculated intravenously with MV4-11 cells 24 h after irradiation. Mice were treated with vehicle control, TT-01901 and TT-03586 during days 4-58 (FIG. 3). 30 days after cells implantation mice treated with vehicle were gradually becoming sick, scruffy and were losing weight. […] The ratio of survival of treated mice versus survival of control mice in percent (T/C) was calculated using formula: T/C %=average survival time for treated mice/average survival time for control mice*100. Increase in the survival (IS) was calculated using formula: IS=(average survival time of treated mice−average survival time of control mice)/average survival time of control mice*100. […] The corresponding increase in survival was 35% and 48%.

The structures appear in SMILES notation.

With `O=C(NCCCc1cn[nH]c1)c1ccc(-n2cccn2)c(C#Cc2ccc(Cl)cc2)c1` [TT-03203], the IC50 in the test on MV4-11 and with U-937 was < 1000 nM in each case. The “maximum suppression of tumor growth (STG %)” value in the test on MV4-11 cells [1] (10 mg/kg PO, SC MV4-11 xenograft (FIG. 2)) is 27%; in the test on MV4-11 cells [1] (25 mg/kg PO, SC MV4-11 xenograft (FIG. 2)) it was 46%; with MV4-11 cells [1] (40 mg/kg, intraperitoneally, SC MV4-11 xenograft (FIG. 1)), 55%. Also, in the test with MV4-11 cells [1], the “effect on tumor growth” value is given as “dose-dependent reduction of tumor growth”.
Regarding `O=C(NCCCn1ccnc1)c1ccc(-n2cccn2)c(C#Cc2ccccc2)c1` [TT-01901], the IC50 in the test on MV4-11 and in the test on U-937 was < 1000 nM each time. Besides, in the test with MV4-11 cells [2] (100 mg/kg oral gavage), the “increase in survival (IS)” value is recorded as 35%. Moreover, in the test with MV4-11 cells [2] (100 mg/kg oral gavage), the “survival of treated mice versus control mice (T/C %)” value stood at 135%.
`O=C(NCCCc1cn[nH]c1)c1ccc(-n2cccn2)c(C#Cc2ccc(F)cc2)c1` [TT-03197]: the IC50 in the test on MV4-11 and with U-937 was < 1000 nM in each case. In addition, in the test on MV4-11 cells [1] (10 mg/kg, intraperitoneally, SC MV4-11 xenograft (FIG. 1)), the “maximum suppression of tumor growth (STG %)” value was found to be 28%. For the same compound, the “effect on tumor growth” value with MV4-11 cells [1] is “dose-dependent reduction of tumor growth”.
For the compound `O=C(NCCCc1cn[nH]c1)c1ccc(N2CCOCC2)c(C#Cc2ccc(F)cc2)c1` [TT-03586], the IC50 in the test with MV4-11 and with U-937 was < 1000 nM throughout. Besides, in the test on MV4-11 cells [2] (50 mg/kg oral gavage), the “increase in survival (IS)” value came to 48%. Also, the “survival of treated mice versus control mice (T/C %)” value with MV4-11 cells [2] (50 mg/kg oral gavage) worked out at 148%.
Consider `COc1cccc(C#Cc2cc(C(=O)NCCCn3ccnc3)ccc2-n2cccn2)c1` [TT-03309], for which the IC50 in the test on MV4-11 and in the test on U-937 was < 1000 nM each time.
As to `O=C(NCCCc1cn[nH]c1)c1ccc(N2CCCCC2)c(C#Cc2ccc(F)cc2)c1` [TT-03588], the IC50 in the test with MV4-11 and in the test with U-937 was < 1000 nM in each case.
